From patent publication US8569344B2, “N-piperidinyl acetamide derivatives as calcium channel blockers” (Zalicus Pharmaceuticals Ltd., priority 2008, dated 2013)
Like-named read-outs stand apart in the source and are kept apart here.

Tests used:
Format in all cases: cell-based
[1] = target: T1, human α1H T-type channels (Homo sapiens, UniProt O95180); assay: T-type calcium channel block, whole cell patch clamp in HEK cells (α1H); settings: HEK cells, patch clamp, mainly non-inactivated protocol; values above 10 μM shown as 10 μM; read-out: T-type Calcium Channel Block α1H IC50
T1 construct: expressed in transfected cells; host or cells: HEK 293
T1 sequence (O95180 whole entry): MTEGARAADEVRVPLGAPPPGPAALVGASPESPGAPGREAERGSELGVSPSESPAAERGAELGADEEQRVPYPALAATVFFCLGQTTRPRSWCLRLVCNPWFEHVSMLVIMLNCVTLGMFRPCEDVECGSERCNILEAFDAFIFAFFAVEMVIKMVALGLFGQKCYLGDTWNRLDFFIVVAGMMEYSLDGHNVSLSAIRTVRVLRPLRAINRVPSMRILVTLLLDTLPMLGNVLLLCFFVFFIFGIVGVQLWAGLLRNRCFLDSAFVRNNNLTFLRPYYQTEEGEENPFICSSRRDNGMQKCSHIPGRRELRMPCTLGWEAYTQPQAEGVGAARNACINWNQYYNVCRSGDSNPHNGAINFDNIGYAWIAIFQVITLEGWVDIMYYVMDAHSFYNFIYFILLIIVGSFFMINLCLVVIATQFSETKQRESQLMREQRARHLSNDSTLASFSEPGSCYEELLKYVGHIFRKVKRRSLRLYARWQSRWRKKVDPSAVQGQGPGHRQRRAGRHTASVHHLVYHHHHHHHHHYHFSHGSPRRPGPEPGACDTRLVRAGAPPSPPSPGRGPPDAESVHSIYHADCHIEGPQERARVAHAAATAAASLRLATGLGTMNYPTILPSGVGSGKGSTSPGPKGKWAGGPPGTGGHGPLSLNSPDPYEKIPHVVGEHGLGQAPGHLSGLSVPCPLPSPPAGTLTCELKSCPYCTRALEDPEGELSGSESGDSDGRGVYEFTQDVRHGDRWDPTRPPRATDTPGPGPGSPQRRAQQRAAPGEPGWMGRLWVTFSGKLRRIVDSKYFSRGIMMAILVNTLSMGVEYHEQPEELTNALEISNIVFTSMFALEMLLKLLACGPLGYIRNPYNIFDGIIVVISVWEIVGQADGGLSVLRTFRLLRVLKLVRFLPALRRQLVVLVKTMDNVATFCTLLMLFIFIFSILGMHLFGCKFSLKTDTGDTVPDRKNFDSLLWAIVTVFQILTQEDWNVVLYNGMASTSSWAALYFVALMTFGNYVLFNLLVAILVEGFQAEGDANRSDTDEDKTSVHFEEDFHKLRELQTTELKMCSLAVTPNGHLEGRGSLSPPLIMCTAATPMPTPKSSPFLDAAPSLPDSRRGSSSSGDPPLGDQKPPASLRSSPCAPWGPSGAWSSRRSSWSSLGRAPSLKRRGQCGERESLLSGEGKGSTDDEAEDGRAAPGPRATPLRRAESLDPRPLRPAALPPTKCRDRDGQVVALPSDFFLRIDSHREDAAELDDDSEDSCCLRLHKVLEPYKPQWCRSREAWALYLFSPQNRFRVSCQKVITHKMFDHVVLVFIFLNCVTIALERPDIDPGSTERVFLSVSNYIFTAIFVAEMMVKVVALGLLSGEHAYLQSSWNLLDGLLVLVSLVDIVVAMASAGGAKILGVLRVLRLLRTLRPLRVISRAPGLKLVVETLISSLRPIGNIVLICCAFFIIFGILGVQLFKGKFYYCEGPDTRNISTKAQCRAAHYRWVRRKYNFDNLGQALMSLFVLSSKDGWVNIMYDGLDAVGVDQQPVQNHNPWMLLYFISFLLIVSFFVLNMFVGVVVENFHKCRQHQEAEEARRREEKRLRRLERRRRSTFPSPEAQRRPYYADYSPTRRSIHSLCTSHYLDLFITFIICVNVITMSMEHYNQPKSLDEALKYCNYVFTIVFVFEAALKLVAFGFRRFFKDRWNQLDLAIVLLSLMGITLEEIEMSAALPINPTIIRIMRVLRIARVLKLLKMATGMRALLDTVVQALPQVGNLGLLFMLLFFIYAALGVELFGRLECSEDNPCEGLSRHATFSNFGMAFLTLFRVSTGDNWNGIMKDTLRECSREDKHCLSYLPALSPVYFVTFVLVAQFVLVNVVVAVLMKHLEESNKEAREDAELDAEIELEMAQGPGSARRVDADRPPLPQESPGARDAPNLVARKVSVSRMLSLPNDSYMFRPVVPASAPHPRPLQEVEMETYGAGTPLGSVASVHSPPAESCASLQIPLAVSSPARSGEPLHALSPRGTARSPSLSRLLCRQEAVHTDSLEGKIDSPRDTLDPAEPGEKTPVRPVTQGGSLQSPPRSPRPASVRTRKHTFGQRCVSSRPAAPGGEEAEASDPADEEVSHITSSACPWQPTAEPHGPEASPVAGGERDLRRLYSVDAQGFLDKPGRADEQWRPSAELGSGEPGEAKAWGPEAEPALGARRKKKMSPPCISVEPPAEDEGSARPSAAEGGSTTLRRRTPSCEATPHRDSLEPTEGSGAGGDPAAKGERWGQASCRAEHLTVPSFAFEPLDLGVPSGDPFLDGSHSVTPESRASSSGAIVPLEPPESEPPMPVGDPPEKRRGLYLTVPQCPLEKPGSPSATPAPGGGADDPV

[2] = target: T2, human α1G T-type channels (Homo sapiens, UniProt O43497); assay: T-type calcium channel block, whole cell patch clamp in HEK cells (α1G); settings: HEK cells, patch clamp, mainly non-inactivated protocol; values above 10 μM shown as 10 μM, below 0.30 μM shown as 0.30 μM; read-out: T-type Calcium Channel Block α1G IC50
T2 construct: expressed in transfected cells; host or cells: HEK 293
T2 sequence (O43497 whole entry): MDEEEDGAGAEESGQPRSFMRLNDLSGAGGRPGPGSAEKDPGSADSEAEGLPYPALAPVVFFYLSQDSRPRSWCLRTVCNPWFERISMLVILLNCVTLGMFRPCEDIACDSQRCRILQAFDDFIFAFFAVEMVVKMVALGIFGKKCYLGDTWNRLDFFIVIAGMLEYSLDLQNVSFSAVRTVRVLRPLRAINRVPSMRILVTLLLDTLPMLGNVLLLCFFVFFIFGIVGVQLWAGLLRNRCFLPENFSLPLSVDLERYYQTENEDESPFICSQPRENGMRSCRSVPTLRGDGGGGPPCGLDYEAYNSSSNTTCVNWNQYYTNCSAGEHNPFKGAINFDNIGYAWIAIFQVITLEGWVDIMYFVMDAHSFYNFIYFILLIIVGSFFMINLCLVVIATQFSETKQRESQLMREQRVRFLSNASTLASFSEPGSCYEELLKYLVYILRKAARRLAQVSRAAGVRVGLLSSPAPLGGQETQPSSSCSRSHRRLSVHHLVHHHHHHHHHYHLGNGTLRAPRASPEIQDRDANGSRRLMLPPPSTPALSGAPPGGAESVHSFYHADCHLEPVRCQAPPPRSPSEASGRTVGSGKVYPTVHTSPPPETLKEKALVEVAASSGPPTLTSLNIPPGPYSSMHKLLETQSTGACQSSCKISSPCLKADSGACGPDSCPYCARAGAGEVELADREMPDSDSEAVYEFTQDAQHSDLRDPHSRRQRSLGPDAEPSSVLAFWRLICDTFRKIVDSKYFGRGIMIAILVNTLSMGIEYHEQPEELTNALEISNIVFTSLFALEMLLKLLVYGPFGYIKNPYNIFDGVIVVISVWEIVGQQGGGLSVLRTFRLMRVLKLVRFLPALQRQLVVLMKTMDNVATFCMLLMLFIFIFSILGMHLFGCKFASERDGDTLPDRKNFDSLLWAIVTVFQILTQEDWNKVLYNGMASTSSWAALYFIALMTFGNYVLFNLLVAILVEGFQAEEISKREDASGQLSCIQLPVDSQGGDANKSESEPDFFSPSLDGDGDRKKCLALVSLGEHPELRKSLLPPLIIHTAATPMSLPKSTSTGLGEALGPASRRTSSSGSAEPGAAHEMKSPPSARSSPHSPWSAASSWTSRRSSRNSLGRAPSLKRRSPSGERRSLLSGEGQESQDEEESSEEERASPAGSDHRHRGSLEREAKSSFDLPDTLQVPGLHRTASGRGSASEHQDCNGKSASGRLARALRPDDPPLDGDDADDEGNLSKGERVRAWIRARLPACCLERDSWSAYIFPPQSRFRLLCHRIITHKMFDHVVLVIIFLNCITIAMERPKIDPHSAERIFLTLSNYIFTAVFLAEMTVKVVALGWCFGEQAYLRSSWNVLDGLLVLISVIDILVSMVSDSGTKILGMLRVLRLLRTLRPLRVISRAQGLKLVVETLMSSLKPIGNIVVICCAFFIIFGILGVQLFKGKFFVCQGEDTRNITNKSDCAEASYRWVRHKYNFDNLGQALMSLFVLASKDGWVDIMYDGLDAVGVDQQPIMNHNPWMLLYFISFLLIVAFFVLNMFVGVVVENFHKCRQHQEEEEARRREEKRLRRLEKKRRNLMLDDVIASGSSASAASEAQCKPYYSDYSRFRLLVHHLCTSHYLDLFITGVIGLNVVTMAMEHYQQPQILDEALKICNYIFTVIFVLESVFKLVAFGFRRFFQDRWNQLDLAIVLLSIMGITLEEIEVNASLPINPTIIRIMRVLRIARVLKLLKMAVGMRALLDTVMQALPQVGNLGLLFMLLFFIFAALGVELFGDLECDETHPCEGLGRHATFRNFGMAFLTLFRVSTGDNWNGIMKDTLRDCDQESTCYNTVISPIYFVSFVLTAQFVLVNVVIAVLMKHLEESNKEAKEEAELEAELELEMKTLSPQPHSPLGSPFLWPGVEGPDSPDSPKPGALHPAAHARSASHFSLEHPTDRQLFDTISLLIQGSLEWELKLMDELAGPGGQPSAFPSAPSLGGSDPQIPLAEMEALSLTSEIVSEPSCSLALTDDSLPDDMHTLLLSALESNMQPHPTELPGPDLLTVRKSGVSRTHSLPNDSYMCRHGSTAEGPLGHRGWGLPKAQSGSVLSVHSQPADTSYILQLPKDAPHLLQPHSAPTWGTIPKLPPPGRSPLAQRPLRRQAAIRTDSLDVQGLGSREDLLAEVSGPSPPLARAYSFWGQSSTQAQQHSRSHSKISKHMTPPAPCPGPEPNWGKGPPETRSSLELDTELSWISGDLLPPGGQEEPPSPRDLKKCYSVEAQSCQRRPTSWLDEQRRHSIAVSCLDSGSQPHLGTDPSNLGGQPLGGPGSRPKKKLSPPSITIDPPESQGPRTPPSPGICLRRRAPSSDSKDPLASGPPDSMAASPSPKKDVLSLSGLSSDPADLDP

[3] = target: hERG K+ channel (Homo sapiens, UniProt Q12809); assay: hERG K+ Channel Block

| Compound | IC50 [1] [nM] | IC50 [2] [nM] | IC50 [3] [nM] | IC50 ([3]; human) [nM] |
| --- | --- | --- | --- | --- |
| CC1(NC(=O)CN2CCC(CNC(=O)c3cc(F)cc(Cl)c3)CC2)CCC1 [Compound 482, 3-chloro-5-fluoro-N-((1-(2-(1-methylcyclobutylamino)-2-oxoethyl)piperidin-4-yl)methyl) benzamide] | 80 | < 300 | 7900 |  |
| Cc1cc(F)cc(C(=O)NCC2CCN(CCNC(=O)C(C)(C)C(F)(F)F)CC2)c1 [Compound 489, 3-fluoro-5-methyl-N-((1-(2-(3,3,3-trifluoro-2,2-dimethylpropanamido)ethyl)piperidin-4-yl)methyl)benzamide] | 120 | 370 | 8800 |  |
| COc1cc(F)cc(C(=O)NCC2CCN(CCNC(=O)C(C)(C)C(F)(F)F)CC2)c1 [Compound 490, 3-fluoro-5-methoxy-N-((1-(2-(3,3,3-trifluoro-2,2-dimethylpropanamido)ethyl)piperidin-4-yl)methyl)benzamide] | 150 | < 300 | 10900 |  |
| CC(C)(C(=O)NCCN1CCC(CNC(=O)c2cccc(C(F)(F)F)c2)CC1)C(F)(F)F [Compound 492, N-((1-(2-(3,3,3-trifluoro-2,2-dimethylpropanamido)ethyl)piperidin-4-yl)methyl)-3-(trifluoromethyl)benzamide] | 90 | < 300 | 4700 |  |
| CC(C)(C(=O)NCCN1CCC(CNC(=O)c2cccc(Br)c2)CC1)C(F)(F)F [Compound 493, 3-bromo-N-((1-(2-(3,3,3-trifluoro-2,2-dimethylpropanamido)ethyl)piperidin-4-yl)methyl)benzamide] | 60 | < 300 | 2500 |  |
| CC(C)(C(=O)NCCN1CCC(CNC(=O)c2cc(F)cc(Cl)c2)CC1)C(F)(F)F [Compound 495, 3-chloro-5-fluoro-N-((1-(2-(3,3,3-trifluoro-2,2-dimethylpropanamido)ethyl)piperidin-4-yl)methyl)benzamide] | 90 | < 300 | 4100 |  |
| COc1cc(F)cc(C(=O)NCC2CCN(CCNC(=O)C3(C(F)(F)F)CC3)CC2)c1 [Compound 499, 3-fluoro-5-methoxy-N-((1-(2-(1-(trifluoromethyl)cyclopropanecarbox-amido)ethyl)piperidin-4-yl)methyl) benzamide] | 140 | < 300 | 11100 |  |
| COc1cc(OC)cc(C(=O)NCC2CCN(CCNC(=O)C3(C(F)(F)F)CC3)CC2)c1 [Compound 500, 3,5-dimethoxy-N-((1-(2-(1-(trifluoromethyl)cyclopropanecarbox-amido)ethyl)piperidin-4-yl)methyl) benzamide] | 180 | < 300 | 5500 |  |
| O=C(NCC1CCN(CCNC(=O)C2(C(F)(F)F)CC2)CC1)c1cccc(Br)c1 [Compound 501, 3-bromo-N-((1-(2-(1-(trifluoromethyl)cyclopropanecarbox-amido)ethyl)piperidin-4-yl)methyl) benzamide] | 120 | < 300 | 5600 |  |
| O=C(NCC1CCN(CCNC(=O)C2(C(F)(F)F)CCC2)CC1)c1cc(F)cc(Cl)c1 [Compound 511, 3-chloro-5-fluoro-N-((1-(2-(1-(trifluoromethyl)cyclobutanecarboxamido)ethyl)piperidin-4-yl)methyl)benzamide] | 90 | < 300 | 2900 |  |
| COc1cc(F)cc(C(=O)NCC2CCN(CCNC(=O)C3(C(F)(F)F)CCC3)CC2)c1 [Compound 513, 3-fluoro-5-methoxy-N-((1-(2-(1-(trifluoromethyl)cyclobutanecarboxamido)ethyl)piperidin-4-yl)methyl)benzamide] | 90 | < 300 |  | ≥ 16600 |
| O=C(CN1CCC(CNC(=O)c2cc(F)cc(Cl)c2)CC1)NC1CCCC1 [Compound 531, 3-chloro-N-((1-(2-(cyclopentylamino)-2-oxoethyl)piperidin-4-yl)methyl)-5-fluorobenzamide] | 80 | < 300 | 2400 |  |
